Here are results for 34 compounds from a melting point compilation (Tetko et al.; mined from patent text by program, amines drawn as free bases though some values may be those of a salt).

Turning to `CCCCCCCCCCCCCCCCCNC(=O)OCC(CO)Oc1cc(C)on1` (centres undefined), the melting point lay in the range of 77 to 79 °C. Next, `COC(=O)Cc1cc(Br)ccc1OCc1ccc(OCc2nc(-c3ccccc3)oc2C)cc1`: 100 to 101 °C; `OC(Cc1ccc(F)cc1)(Cn1cncn1)c1ccccc1` (centres undefined): 116 to 118 °C; `N#Cc1c(CNS(=O)(=O)c2c(F)cccc2F)nn(-c2ccc(Cl)cc2Cl)c1-c1ccc(O)cc1`: 196 °C. Next, `CC(n1cncn1)C(O)(Cn1cncn1)c1ccc(Cl)cn1` (centres undefined): 156 to 157 °C; `CN(Cc1ccccc1)c1ccc(C(=O)c2ccccc2)cc1N`: 93 to 94 °C. The result for `COc1cc(F)ccc1C(=O)NC(C)c1nc(-c2ccncn2)cc(=O)n1C` (racemic) reads 201 to 203 °C. `NNC1=Nc2ccc(Cl)cc2C(c2ccccc2F)S(=O)(=O)CC1` (centres undefined) gave a melting point of 159 °C. In the case of `CC(C)(C)C1=C(C#N)C(c2cccc3nonc23)c2c[nH]nc2N1` (centres undefined), the melting point was determined as 204 °C. Next, `COc1ccc(-c2c(Cl)c(CN3CCCCC3=O)nc3sc4c(c23)CCN(Cc2ccccc2)C4)cc1OC`: 113 to 114 °C; `CC(=O)OCC(=O)NCc1nc(-c2csc(N=C(N)N)n2)cs1`: 182 to 183 °C. The result for `N#CCc1c[nH]c2cnc(-n3cncn3)cc12` reads 218 to 220 °C; that for `O=C(NCCO)C(O)C(Oc1ccccc1[N+](=O)[O-])c1ccccc1` (centres undefined), 166 to 188 °C. Next, `O=C(Nc1ccncn1)C(CC1CCCC1)c1cccc(C(F)(F)F)c1` (centres undefined): 113 to 115 °C; `COc1ccc(C#Cc2ccccc2)cc1`: 57 to 58 °C; `O=C1c2ccc(-n3ncc4ccccc43)cc2CCN1CCN1CCCC1`: 185 to 186 °C. Take `O=C(NCCC1CC1)c1ccc(N2CCN(C(=S)c3ccccc3C(F)(F)F)CC2)nn1`: the melting point is 117 to 120 °C. The result for `COC(=O)c1ccc(CNC(=O)OCc2ccccc2)cc1O` reads 91 to 92 °C; that for `Cc1c(Cc2cccc(C(=O)O)c2)n(S(=O)(=O)c2cccc(C(C)(C)C)c2)c2ccc(C(F)(F)F)cc12`, 194 °C; that for `Cc1cc(Cl)cc(C(=O)NC(C)C)c1NC(=O)c1cc(C(F)(F)F)nn1-c1ncccc1Cl`, 195 to 196 °C. The result for `CC[C@H](C)[C@H](NC(=O)O[C@@H](CC(C)C)C(=O)O)C(=O)NC1CCCCC1` reads 193 to 195 °C; that for `Nc1ccc(-c2cc3c(N4CCCc5ccccc54)ncnc3[nH]2)cc1`, 243 to 245 °C; that for `CC(C)(C)OC(=O)[C@@H]1CCCN1C(=O)CCC(=O)c1ccc(Br)cc1`, 70 to 71 °C. The result for `CCN(C(=O)OCc1ccccc1)c1c(OC)cc(C(=O)OC)cc1OC` reads 85 to 86 °C; that for `Cc1[nH]c2ccc(F)cc2c1C(=O)NC1CCN(CCc2ccccc2)CC1`, 159 to 162 °C. Regarding `COc1ccc(-c2sc3cc(OC)ccc3c2C(=O)O)cc1`, the melting point was in the range of 166 to 170 °C. Next, `O=C(O)C(CCc1ccccc1)Oc1c(Br)cc(-c2ccc(-c3c(Cc4ccccc4)sc4ccccc34)cc2)cc1Br` (centres undefined): 85 to 87 °C; `CC(C)(C)C(Cl)=CC(=O)O`: 146 to 148 °C; `COC(=O)C(=O)Oc1c(F)c(F)c(F)c(F)c1F`: 34 to 35 °C.

The compound `CCCCCCCCCCCCc1ccc(NC2CCCc3ccccc32)cc1` (centres undefined) gave a melting point of 34 °C. In turn, `CC1=C(C)C(=O)C(C(C)c2ccc(CC(=O)O)cc2)=C(C)C1=O` (centres undefined) displayed a melting point of 142 to 143 °C. The result for `CC=Cn1c(C)c(C)c2cnnc(OCc3ccc(F)cc3)c21` reads 114 to 115 °C; that for `FC(F)(F)C(=C1SCCCS1)c1ccccc1`, 87 to 88 °C. Next, `O=[N+]([O-])c1ccc(-c2scc3c2OCCO3)cc1`: 184 to 186 °C.

As usually defined, the melting point is the temperature, or range, at which the solid turns liquid.
